This note sets out measurements from patent US8188073B2, “Benzoxazines and related nitrogen-containing heterobicyclic compounds useful as mineralocorticoid receptor modulating agents” (Mitsubishi Tanabe Pharma Corporation, priority 2006, dated 2012).

Bounds are passed on as bounds.

The first assay concerns the target T1, Aldosterone Receptor (Rattus norvegicus, UniProt P22199).
T1 construct: centrifuged at 100,000×g for 1 hour to give a supernatant as a kidney cytosol fraction; from tissue; host or cells: kidney cytosol of adrenalectomised Sprague-Dawley male rats
T1 sequence (P22199 1-981): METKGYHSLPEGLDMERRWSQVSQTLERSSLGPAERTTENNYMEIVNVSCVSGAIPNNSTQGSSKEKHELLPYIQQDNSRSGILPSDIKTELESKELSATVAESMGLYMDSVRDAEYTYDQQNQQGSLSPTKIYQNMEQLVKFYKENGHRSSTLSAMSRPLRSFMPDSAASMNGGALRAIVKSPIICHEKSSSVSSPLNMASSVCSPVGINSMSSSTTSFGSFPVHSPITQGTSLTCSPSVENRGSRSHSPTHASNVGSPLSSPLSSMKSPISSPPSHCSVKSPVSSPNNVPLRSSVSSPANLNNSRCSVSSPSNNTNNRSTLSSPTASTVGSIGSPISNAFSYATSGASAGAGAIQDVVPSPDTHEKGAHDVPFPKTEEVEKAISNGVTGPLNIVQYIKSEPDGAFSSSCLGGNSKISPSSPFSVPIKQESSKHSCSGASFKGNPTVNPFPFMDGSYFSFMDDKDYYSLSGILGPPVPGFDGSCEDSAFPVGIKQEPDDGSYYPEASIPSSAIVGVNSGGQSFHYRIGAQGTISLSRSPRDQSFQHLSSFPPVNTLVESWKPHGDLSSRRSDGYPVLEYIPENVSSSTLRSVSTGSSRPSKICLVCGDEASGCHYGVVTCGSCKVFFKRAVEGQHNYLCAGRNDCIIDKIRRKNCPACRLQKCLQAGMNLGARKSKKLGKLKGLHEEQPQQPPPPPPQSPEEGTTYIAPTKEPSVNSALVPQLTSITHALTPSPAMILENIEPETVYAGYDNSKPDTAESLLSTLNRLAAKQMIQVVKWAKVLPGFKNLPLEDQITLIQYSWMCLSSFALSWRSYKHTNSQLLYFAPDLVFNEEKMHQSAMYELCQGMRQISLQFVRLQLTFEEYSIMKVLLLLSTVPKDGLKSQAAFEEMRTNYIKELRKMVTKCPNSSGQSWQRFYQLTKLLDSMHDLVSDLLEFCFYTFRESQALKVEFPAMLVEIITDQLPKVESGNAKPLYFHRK
Description: Aldosterone Receptor Binding Assay (Experiment 1; kidney cytosol fraction, [3H]aldosterone). The settings on record: [3H]aldosterone ca. 2 nM, 4° C. overnight, Ki by Cheng and Prusoff's equation. Further details: species or system Sprague-Dawley male rats. As for the experimental part:
Experiment 1 [Aldosterone Receptor Binding Assay]
(1) Preparation of Kidney Cytosol Fraction:
Kidneys derived from post-adrenalectomy Sprague-Dawley male rats (7 weeks old) were homogenized in the following buffer solution and the homogenate was centrifuged at 100,000×g for 1 hour to give a supernatant as a kidney cytosol fraction (protein concentration: 15 mg/mL) for the present biding assay.
Composition of Buffer solution: 50 mM Tris-HCl (pH 7.5), 250 mM Sucrose, 50 mM Potassium chloride, 3 mM Magnesium chloride, 20 mM Sodium molybdate and 1 mM Mercaptoethanol
A mixture of 5 μL of a solution of each test compound in dimethylsulfoxide, 200 μL of kidney cytosol fraction, 50 μL of physiological saline (or 50 μL of unlabeled aldosterone solution (final concentration: 1 μM) and (50 μL of [^3H]aldosterone solution (ca. 2 nM) was incubated in a test tube at 4° C. overnight. Thereto was added 100 μL of dextrane-coated charcoal/10 mM Tris-HCl buffer and the mixture was incubated at 4° C. for 30 minutes. The reaction mixture was centrifuged at 3000 rpm for 10 minutes and to the supernatant (150 μL) was added 5 mL of a scintillator (Clearsol II, Nakarai Tesque). The radioactivity was measured by a liquid scintilation counter (TRI CARB 2200CA, Packard). […] Moreover, the dissociation constant (Ki) of each test compound was calculated on Cheng and Prusoff's equation (Ki=IC50/(1+[L]/Kd), wherein [L] is [^3H]aldosterone concentration and Kd is the affinity constant of aldosterone).
As for `COc1cc2c(cc1NS(C)(=O)=O)OC(C)(C)C(=O)N2c1ccc(F)cc1` [Example 101, N-[4-(4-Fluorophenyl)-6-methoxy-2,2-dimethyl-3-oxo-3,4-dihydro-2H-1,4-benzoxazin-7-yl]methanesulfonamide], the Ki (usually the dissociation constant of the complex between target and ligand, obtained from inhibition or displacement) is less than 500 nM.

Take `CC1(C)Oc2cc(NS(C)(=O)=O)ccc2N(c2ccc(F)cc2)C1=O` [Example 9, N-[4-(4-fluorophenyl)-2,2-dimethyl-3-oxo-3,4-dihydro-2H-1,4-benzoxazin-7-yl]methanesulfonamide]: the Ki was less than 500 nM. The compound `CC1(C)Oc2cc(NS(C)(=O)=O)ccc2N(c2ccc(F)cc2)C1=S` [Example 46, N-[4-(4-fluorophenyl)-2,2-dimethyl-3-thioxo-3,4-dihydro-2H-1,4-benzoxazin-7-yl]methanesulfonamide] had a Ki of less than 500 nM. On the same count and under the same terms, next, `CS(=O)(=O)Nc1ccc2c(c1)OCC(=O)N2c1ccc(F)c(Cl)c1` [Example 67]: 500 to 1000 nM; `CS(=O)(=O)Nc1ccc2c(c1)OC1(CCC1)C(=O)N2c1ccc(F)cc1` [Example 37]: 500 to 1000 nM; `CC1(C)Oc2cc(NS(C)(=O)=O)ccc2N(c2ccc(Cl)cc2)C1=O` [Example 11]: less than 500 nM.

The compound `CC1(C)Oc2cc(NS(C)(=O)=O)ccc2N(c2ccc(F)c(F)c2)C1=O` [Example 10] registered a Ki of less than 500 nM. Compound `CC1(C)Oc2cc(NS(C)(=O)=O)ccc2N(Cc2ccccc2)C1=O` [Example 19] gave a Ki of less than 500 nM. `COc1cccc(N2C(=O)C(C)(C)Oc3cc(NS(C)(=O)=O)ccc32)c1` [Example 53] returned a Ki of less than 500 nM. On the same count and under the same terms, next, `COc1cc(N2C(=O)C(C)(C)Oc3cc(NS(C)(=O)=O)ccc32)ccc1F` [Example 55, N-[4-(4-Fluoro-3-methoxyphenyl)-2,2-dimethyl-3-oxo-3,4-dihydro-2H-1,4-benzoxazin-7-yl]methanesulfonamide]: less than 500 nM; `CC1(C)Nc2cc(NS(C)(=O)=O)ccc2N(c2ccc(F)cc2)C1=O` [Example 45, N-[1-(4-fluorophenyl)-3,3-dimethyl-2-oxo-1,2,3,4-tetrahydroquinoxalin-6-yl]methanesulfonamide]: less than 500 nM.

For the compound `CS(=O)(=O)Nc1ccc2c(c1)OC(c1ccccc1)C(=O)N2c1ccc(Cl)cc1` (stereo not drawn) [Example 6], the Ki is less than 500 nM. Same read-out and setting: next, `Cc1cc(F)ccc1N1C(=O)C(C)(C)Oc2cc(NS(C)(=O)=O)ccc21` [Example 50]: less than 500 nM; `CC1(C)Oc2cc(NS(C)(=O)=O)ccc2N(c2ccncc2)C1=O` [Example 64]: less than 500 nM.

A further assay addresses T2, glucocorticoid receptors (GR) (Rattus norvegicus, UniProt P06536).
T2 construct: glucocorticoid receptors (GR) derived form rat liver; from tissue; host or cells: rat liver
T2 sequence (P06536 1-795): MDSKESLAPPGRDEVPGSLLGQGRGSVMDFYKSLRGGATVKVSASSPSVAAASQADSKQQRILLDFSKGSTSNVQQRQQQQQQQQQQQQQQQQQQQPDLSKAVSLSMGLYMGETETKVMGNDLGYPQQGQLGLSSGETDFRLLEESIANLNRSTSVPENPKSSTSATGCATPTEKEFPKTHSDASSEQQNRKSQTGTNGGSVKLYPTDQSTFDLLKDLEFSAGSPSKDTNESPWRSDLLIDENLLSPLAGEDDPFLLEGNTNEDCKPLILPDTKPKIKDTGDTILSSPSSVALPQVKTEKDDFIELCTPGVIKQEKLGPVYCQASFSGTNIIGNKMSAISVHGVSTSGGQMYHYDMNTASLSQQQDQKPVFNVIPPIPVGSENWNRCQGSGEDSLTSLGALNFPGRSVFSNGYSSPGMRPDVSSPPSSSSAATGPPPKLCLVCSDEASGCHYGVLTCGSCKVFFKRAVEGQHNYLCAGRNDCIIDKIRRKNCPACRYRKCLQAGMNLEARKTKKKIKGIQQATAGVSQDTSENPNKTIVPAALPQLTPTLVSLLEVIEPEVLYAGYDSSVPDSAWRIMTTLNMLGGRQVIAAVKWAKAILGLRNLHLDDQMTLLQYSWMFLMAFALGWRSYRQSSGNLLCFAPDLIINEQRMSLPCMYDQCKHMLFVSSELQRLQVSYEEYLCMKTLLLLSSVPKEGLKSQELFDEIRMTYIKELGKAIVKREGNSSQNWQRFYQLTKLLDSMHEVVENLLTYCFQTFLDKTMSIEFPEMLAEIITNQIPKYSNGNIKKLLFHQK
Nature of the assay: binding assay using glucocorticoid receptors derived from rat liver and 3H-dexamethazone. The conditions noted are these: GR derived from rat liver. As for the experimental part:
(§1) Each biding assay was conducted in a similar manner as the procedure described in The Journal of Pharmacology and Experimental Therapeutics, 1987; 240:p. 650-656.
`O=C1C(c2ccccc2)Oc2cc([N+](=O)[O-])ccc2N1c1ccc(F)cc1` (stereo not drawn) [4-(4-fluorophenyl)-7-nitro-2-phenyl-2H-1,4-benzoxizin-3(4H)-one]: the Ki is less than 10000 nM. Same read-out and setting: next, `Cc1ccc(N2C(=O)C(C)(C)Oc3cc([N+](=O)[O-])ccc32)cc1C(F)(F)F`: less than 10000 nM; `Cc1cc(N2C(=O)C(C)(C)Oc3cc([N+](=O)[O-])ccc32)ccc1F` [4-(4-fluoro-3-methylphenyl)-2,2-dimethyl-7-nitro-2H-1,4-benzoxizin-3 (4H)-one]: less than 10000 nM.

In another assay the target is T3, androgen receptors (AR) (Rattus norvegicus, UniProt P15207).
T3 construct: androgen receptors (AR) derived form rat prostate; from tissue; host or cells: rat prostate
T3 sequence (P15207 1-902): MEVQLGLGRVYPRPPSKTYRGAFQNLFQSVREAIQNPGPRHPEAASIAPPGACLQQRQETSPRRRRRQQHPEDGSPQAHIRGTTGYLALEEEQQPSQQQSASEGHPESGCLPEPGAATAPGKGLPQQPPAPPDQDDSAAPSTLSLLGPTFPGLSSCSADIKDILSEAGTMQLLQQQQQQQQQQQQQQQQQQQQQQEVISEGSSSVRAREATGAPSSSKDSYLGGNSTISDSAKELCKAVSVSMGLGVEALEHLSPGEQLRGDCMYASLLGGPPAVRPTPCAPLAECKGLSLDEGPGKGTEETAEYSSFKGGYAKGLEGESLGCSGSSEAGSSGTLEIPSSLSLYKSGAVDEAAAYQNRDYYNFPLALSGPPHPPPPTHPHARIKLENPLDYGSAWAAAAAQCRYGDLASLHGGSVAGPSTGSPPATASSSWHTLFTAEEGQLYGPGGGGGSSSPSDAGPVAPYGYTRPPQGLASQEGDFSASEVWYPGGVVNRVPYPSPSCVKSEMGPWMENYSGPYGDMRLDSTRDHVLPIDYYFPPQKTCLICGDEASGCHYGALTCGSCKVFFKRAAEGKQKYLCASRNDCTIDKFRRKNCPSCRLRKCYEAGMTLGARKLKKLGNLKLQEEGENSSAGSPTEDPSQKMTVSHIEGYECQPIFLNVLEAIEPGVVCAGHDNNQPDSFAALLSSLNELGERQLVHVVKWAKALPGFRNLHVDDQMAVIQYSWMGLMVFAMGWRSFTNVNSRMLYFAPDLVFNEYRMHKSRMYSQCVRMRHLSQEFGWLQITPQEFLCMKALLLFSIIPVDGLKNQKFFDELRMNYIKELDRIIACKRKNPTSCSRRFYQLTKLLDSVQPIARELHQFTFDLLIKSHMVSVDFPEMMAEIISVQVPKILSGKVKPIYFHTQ
Nature of the assay: binding assay using androgen receptors derived from rat prostate and 3H-methyltrienorone. The conditions noted are these: AR derived from rat prostate. How it is done: as §1
Take `CC1(C)Oc2cc(N)ccc2N(c2ccc(F)c(F)c2)C1=O` [7-amino-4-(3,4-difluorophenyl)-2,2-dimethyl-2H-1,4-benzoxizin-3(4H)-one]: the Ki is less than 10000 nM.

A further assay concerns the target T4, mineralocorticoid receptors (MR) (Rattus norvegicus, UniProt P22199).
T4 construct: mineralocorticoid receptors (MR) derived form rat kidney; from tissue; host or cells: rat kidney
T4 sequence (P22199 1-981): T1 sequence (P22199 1-981)
Description: binding assay using rat MR and 3H-aldosterone. The conditions noted are these: MR derived from rat kidney. As for the experimental part: as §1
For example, in a binding assay using rat MR and ^3H-aldosterone, which was conducted in accordance with a manner as described in The Journal of Pharmacology and Experimental Therapeutics, 1987; 240: p. […] Therefore, the compound [I] of the present invention is useful as a medicament for prevention or treatment of various diseases associated with the receptor and/or aldosterone, such as cardiovascular diseases including hypertension and heart failure.
For `CC1(C)Oc2cc([N+](=O)[O-])c(Cl)cc2N(c2ccc(F)cc2)C1=O` [6-chloro-4-(4-fluorophenyl)-2,2-dimethyl-7-nitro-2H-1,4-benzoxizin-3(4H)-one], the Ki was less than 10000 nM.

Still in this assay, the particulars now being: rat MR and 3H-aldosterone.
For the compound `CC1(C)Oc2cc(NS(C)(=O)=O)ccc2N(c2ccccc2)C1=O` [N-(2,2-dimethyl-3-oxo-4-phenyl-3,4-dihydro-2H-1,4-benzoxazin-7-yl)methanesulfonamide], the IC50 (usually the concentration at which inhibition is half-maximal) was less than 10000 nM. Take `CS(=O)(=O)Nc1ccc2c(c1)OC(c1ccccc1)C(=O)N2c1ccccc1` (stereo not drawn) [N-(3-oxo-2,4-diphenyl-3,4-dihydro-2H-1,4-benzoxazin-7-yl)methane sulfonamide]: the IC50 is less than 10000 nM.
